Reference: patent publication US7030273B1, “Compounds with physiological cooling effect” (Qaroma, Inc, priority 2005, dated 2006)

Key:
tongue = experiment: Toothpicks soaked in compound solution, put on tongue; format: in vivo, human; conditions: toothpick tips soaked in 5% solution in denatured ethanol, dried
Source text: Toothpick tips were soaked in 5% solution of Compound 3 in this invention in denatured ethanol for long enough to have enough deposition of the compound. The picks were then dried.

[1] = tested on: cold receptors of the skin and mucous membranes of the human body; experiment: Panel test of physiological cooling ability against WS-23, solutions applied orally; format: in vivo; parameters: key: + means the compound has equal or stronger cooling effect than WS-23; conditions: 2000 ppm solution applied orally; panel of 5 people
Protocol: The following testing procedure is aimed at determining physiological cooling ability of testing compounds with regard to WS-23 ([…]). The tests are carried out on a selected panel of 5 people. The present test procedure is done on a statistical basis because sensitivity to cooling compounds will vary not only from compound to compound and from one part of the body to another, but from one individual to another as well. Tests of this nature are commonly used on the testing and quality control of the organoleptic properties, e.g. taste, smell of organic and inorganic food products.
1 g of each testing compound is dissolved in 99 g denatured ethanol to form 1% solution. 2 g such solution is then diluted with 8 g deionized water to form 2000 ppm solution. The solutions are then applied orally to determine the cooling effect.
To test the cooling activity of the compounds in this invention, the compounds prepared in this invention are tested repeatedly by the 5 selected panelists and the results are compared with WS-23.

mouth = experiment: Mint candies containing the compound, cooling effect in the mouth; format: in vivo, human; conditions: 0.02% in icing sugar candies
Protocol: Icing sugar was mixed with small amount of water at 50° C. to form a paste. 0.02% Compound 5 in this invention was added and stirred. Cooled to room temperature, the mixture hardened and was broken into smaller pieces.

melting point [°C]	SMILES	cooling sensation on tongue (tongue)	Cooling ability compared to WS-23 [1]	cooling effect in the mouth (mouth)
	CCOCCNC(=O)C(C)(C(C)C)C(C)C [Compound 3, N-(2-ethoxyethyl)-2,3-dimethyl-2-isopropylbutyramide]	pronounced cooling sensation	+	
10	COCCCNC(=O)C(C)(C(C)C)C(C)C [Compound 5, N-(3-methoxypropyl)-2,3-dimethyl-2-isopropylbutyramide]		+	marked cooling effect in the mouth
30	CCOCCCNC(=O)C(C)(C(C)C)C(C)C [Compound 6, N-(3-ethoxypropyl)-2,3-dimethyl-2-isopropylbutyramide]		+	
32	CC(C)OCCCNC(=O)C(C)(C(C)C)C(C)C [Compound 7, N-(3-isopropoxypropyl)-2,3-dimethyl-2-isopropylbutyramide]		+	

SMILES	melting point [°C]	cooling sensation on tongue (tongue)	Cooling ability compared to WS-23 [1]	cooling effect in the mouth (mouth)
CCCCOCCCNC(=O)C(C)(C(C)C)C(C)C [Compound 8, N-(3-butoxypropyl)-2,3-dimethyl-2-isopropylbutyramide]	40		+	
